How the values were obtained:
[1] = system: Human Valvular Interstitial Cells (hVICs); assay: human monocytes secretome-induced hVICs calcification (o-cresolphthalein complexone calcium measurement); format: cell-based
From the text: Human aortic valves form AS patients who underwent aortic valve surgical replacement were collected at Rouen University Hospital, starting on May 2 2016, after agreement of The CPP Nord-Ouest I (RCB: 2016-A00137-44). Human Valvular Interstitial Cells (hVICs) were isolated and cultured as already described. (Morvan, Arangalage et al. 2019) Briefly, aortic valve leaflets previously collected and washed in PBS containing antibiotics were cut into pieces and digested with type I collagenase (0.22 U/mg) for 3 hours at 37° C. Digested valves are filters on 70 μm cell strainers to remove undigested valve parts and obtain a homogenous cell suspension resuspended in complete smooth muscle cell basal 2 medium (PromoCell, Heidelberg, Germany) with 10% Fetal Bovine Serum (FBS) Penicillin/Streptomycin (P/S, Sigma-Aldrich Cat #P4333). Cell suspension is then seeded into rat type collagen I (3 mg/ml, Gibco, Cat #A1048301) coated flask and incubated at 37° C., 5% CO2 for several days until reaching cell confluency. At this step hVICs are obtained and cultured in DMEM (Dulbecco's modified Eagle's medium, Gibco, Cat #41966-029) with 10% FBS and P/S until passage 4. […]
(§1) Previously isolated hVICs were treated for 10 days with human monocytes and M1 macrophages CM diluted v/v with DMEM (Gibco, Cat #41966-029) in the presence or not of inorganic […] (Pi) at a final concentration up to 1.9 mM (0.9 mM of […] already present in DMEM). Treatment with conditioned medium was renewed every 2 days and calcium content in each well was measured with the o-cresolphthalein complexone colorimetric method. […]
(§2) Data are obtained from indicated number of hVICs isolated from distinct patients. […] Data are expressed as mean values of control (DMSO (vehicle) treated monocytes or M1 macrophages)±SEM. When indicated, statistical significance was determined by non-parametric Kruskal-Wallis test followed by Dunns post-hoc test using Graphpad Prism 5 software. The use of non-parametric Kruskal-Wallis test was determined depending Shapiro-Wilk normality test data distribution.

[2] = system: Human Valvular Interstitial Cells (hVICs); assay: human M1 macrophages secretome-induced hVICs calcification (o-cresolphthalein complexone calcium measurement); format: cell-based; conditions: M1 macrophages pre-treatment (5 μM, 72 h); n=1 VICs patient in triplicates, CM from n=1 volunteer; FIG. 4
From the text: Human aortic valves form AS patients who underwent aortic valve surgical replacement were collected at Rouen University Hospital, starting on May 2 2016, after agreement of The CPP Nord-Ouest I (RCB: 2016-A00137-44). Human Valvular Interstitial Cells (hVICs) were isolated and cultured as already described. (Morvan, Arangalage et al. 2019) Briefly, aortic valve leaflets previously collected and washed in PBS containing antibiotics were cut into pieces and digested with type I collagenase (0.22 U/mg) for 3 hours at 37° C. […]
as §1
as §2, with “The use of non-parametric Kruskal-Wallis test was determined depending Shapiro-Wilk normality test data distribution.” left out

SMILES: CC[C@H](C)n1cc(C)c2c(C(=O)NCc3c(C)cc(C)[nH]c3=O)cc(-c3ccc(N4CCNCC4)nc3)cc21 [GSK-126]
- CAVD patient monocytes secretome-induced hVICs calcification ([1]; monocytes from CAVD patients pre-treated with 5 μM for 72 h, CM1, hVICs with 1.9 mM Pi for 10 days, vs vehicle (DMSO), FIG. 2): significantly reduced
- volunteer monocytes secretome-induced hVICs calcification ([1]; monocytes from volunteers pre-treated with 5 μM for 72 h, CM1, hVICs with 1.9 mM Pi for 10 days, vs vehicle (DMSO), FIG. 1): significantly reduced
- volunteer monocytes secretome-induced hVICs calcification 24 h after monocytes pre-treatment ([1]; monocytes from volunteers, 72 h pre-treatment then new conditioned medium for 24 h (CM2) in the absence of inhibitor, 1.9 mM Pi, FIG. 3): the same result was obtained
- M1 secretome-induced hVICs calcification [2]: reduced

Reference: patent US20240350508A1, “USE OF EZH2 INHIBITORS FOR THE TREATMENT OF AORTIC VALVE STENOSIS” (INSERM (INSTITUT NATIONAL DE LA SANTÉ ET DE LA RECHERCHE …, priority 2021, published 2024)
